Experimental data published in patent US10947242B2, “[1,2,4]triazolo[1,5and#8208;A]pyrimidine compounds as PDE2 inhibitors” (Janssen Pharmaceutica NV, priority 2016, dated 2021).
Where two headings read alike, the source gives them in different places.

Assays:
[1] = target: T1, PDE2A (Rattus norvegicus, UniProt Q01062); test: PDE2 occupancy by test compounds, ex-vivo autoradiography with [3H]B-17a; type: in vivo, Male Wistar rats; conditions: for receptor occupancy at 10 mg/kg: percentage receptor occupancy, ex-vivo autoradiography, striatum
T1 construct: Twenty μm-thick striatal sections were cut; from tissue; host or cells: rat brain, striatal sections
T1 sequence (Q01062 1-928): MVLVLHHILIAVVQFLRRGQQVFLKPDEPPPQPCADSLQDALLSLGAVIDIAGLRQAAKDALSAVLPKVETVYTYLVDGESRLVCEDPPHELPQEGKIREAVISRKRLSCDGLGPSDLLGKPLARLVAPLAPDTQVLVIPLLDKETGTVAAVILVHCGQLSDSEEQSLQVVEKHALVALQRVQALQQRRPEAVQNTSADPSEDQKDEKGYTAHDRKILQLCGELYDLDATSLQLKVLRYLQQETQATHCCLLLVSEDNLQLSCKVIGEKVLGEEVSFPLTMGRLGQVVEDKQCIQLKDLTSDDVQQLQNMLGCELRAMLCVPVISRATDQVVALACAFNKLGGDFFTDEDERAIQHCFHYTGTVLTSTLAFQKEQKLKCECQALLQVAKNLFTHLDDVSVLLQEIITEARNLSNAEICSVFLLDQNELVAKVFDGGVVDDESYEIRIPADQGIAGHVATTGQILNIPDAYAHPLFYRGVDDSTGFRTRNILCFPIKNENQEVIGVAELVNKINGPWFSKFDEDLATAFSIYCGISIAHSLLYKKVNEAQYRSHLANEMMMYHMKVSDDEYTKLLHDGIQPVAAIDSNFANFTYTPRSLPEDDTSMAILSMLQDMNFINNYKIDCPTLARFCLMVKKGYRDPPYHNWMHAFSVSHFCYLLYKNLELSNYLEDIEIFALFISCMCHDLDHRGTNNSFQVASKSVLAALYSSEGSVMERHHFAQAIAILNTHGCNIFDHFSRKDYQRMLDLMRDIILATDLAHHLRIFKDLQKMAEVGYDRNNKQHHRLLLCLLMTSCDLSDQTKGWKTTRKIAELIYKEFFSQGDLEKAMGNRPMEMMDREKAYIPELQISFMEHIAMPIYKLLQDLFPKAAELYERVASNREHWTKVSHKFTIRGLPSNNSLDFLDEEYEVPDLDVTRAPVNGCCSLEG

[2] = target: T2, Human recombinant PDE2A (hPDE2A) (Homo sapiens, UniProt O00408); test: In vitro assay PDE2A (SPA, 3H-cGMP hydrolysis); type: biochemical; conditions: for Emax: read-out: hPDE2A Emax
T2 construct: His tag (inferred from metal chelate purification); made in house; host or cells: Sf9 insect cells (baculovirus)

[3] = target: T3, Human recombinant PDE3A (hPDE3A) (Homo sapiens, UniProt Q14432); test: In vitro assay PDE3A (SPA, 3H-cAMP hydrolysis); type: biochemical; conditions: for IC50: hPDE3B pIC50, read-out: pIC50 (converted); for Emax: read-out: hPDE3B Emax, read-out: Emax;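 for all read-outs here: the method names PDE3A and the table heading PDE3B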
T3 construct: purchased Scottish Biomedical; host or cells: Sf9 insect cells
In short: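 Human PDE3A, cloned from brain, as partially purified Sf9 lysate. Substrate 0.4 μM cAMP plus [3H]-cAMP (2.4 μCi/ml final) in 50 mM Tris pH 7.8, 8.3 mM MgCl2, 1.7 mM EGTA, 60 min at room temperature, 1% DMSO final. Hydrolysis read by SPA scintillation counting against no-enzyme blanks and DMSO controls.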

[4] = target: T4, Human recombinant PDE10A (hPDE10A) (Homo sapiens, UniProt Q9Y233); test: In vitro assay PDE10A, human clone (SPA, 3H-cAMP hydrolysis); type: biochemical; conditions: human clone (h), default; for Emax: read-out: hPDE10A2 Emax; for IC50: read-out: hPDE10A2 pIC50 (converted)
T4 construct: His tag (inferred from metal chelate purification); made in house; host or cells: Sf9 insect cells (baculovirus)
In short: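 Human recombinant PDE10A was expressed in Sf9 cells via baculovirus and incubated with compound in 50 mM Tris pH 7.8, 8.3 mM MgCl2, 1.7 mM EGTA. Substrate was 60 nM cAMP plus 0.008 μCi 3H-cAMP for 60 min at room temperature, read by SPA scintillation counting. Controls used 1% DMSO, and blanks omitted enzyme.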

[5] = human recombinant PDE2A, 10 μM cGMP substrate, read-out: hPDE2A pIC50 (converted)
[6] = read-out: hPDE2A pIC50 (converted)
[7] = hPDE2A pIC50, human recombinant PDE2A, 10 μM cGMP substrate

T3 sequence (Q14432 whole entry): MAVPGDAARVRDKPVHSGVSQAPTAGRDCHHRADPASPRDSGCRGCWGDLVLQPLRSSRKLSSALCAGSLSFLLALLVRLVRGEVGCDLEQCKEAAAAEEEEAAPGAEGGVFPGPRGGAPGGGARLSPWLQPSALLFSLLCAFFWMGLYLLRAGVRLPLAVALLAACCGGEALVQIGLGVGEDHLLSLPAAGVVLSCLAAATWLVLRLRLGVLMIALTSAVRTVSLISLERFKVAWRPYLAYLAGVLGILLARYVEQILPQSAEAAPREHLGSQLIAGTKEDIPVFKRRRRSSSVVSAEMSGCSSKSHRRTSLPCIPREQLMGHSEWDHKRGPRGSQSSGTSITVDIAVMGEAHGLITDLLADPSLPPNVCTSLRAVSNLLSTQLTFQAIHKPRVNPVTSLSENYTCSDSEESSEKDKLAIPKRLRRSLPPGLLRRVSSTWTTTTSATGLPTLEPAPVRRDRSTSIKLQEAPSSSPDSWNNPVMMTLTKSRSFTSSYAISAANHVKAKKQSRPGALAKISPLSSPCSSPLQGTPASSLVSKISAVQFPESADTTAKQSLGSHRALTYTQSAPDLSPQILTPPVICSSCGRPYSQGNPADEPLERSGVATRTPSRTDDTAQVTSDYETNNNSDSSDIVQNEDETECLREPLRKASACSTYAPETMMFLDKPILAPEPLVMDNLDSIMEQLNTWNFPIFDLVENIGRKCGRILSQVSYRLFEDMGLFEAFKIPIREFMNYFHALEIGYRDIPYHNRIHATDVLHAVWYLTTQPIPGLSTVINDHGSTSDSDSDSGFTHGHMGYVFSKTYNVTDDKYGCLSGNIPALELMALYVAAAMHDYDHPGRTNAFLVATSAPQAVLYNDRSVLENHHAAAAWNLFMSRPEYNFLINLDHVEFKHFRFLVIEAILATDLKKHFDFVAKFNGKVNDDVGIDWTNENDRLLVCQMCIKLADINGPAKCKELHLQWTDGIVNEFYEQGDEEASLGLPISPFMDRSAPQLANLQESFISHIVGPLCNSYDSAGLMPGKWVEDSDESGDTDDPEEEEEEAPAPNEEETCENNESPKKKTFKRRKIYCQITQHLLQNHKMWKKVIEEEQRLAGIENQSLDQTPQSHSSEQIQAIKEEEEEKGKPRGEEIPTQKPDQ
T4 sequence (Q9Y233 267-1055): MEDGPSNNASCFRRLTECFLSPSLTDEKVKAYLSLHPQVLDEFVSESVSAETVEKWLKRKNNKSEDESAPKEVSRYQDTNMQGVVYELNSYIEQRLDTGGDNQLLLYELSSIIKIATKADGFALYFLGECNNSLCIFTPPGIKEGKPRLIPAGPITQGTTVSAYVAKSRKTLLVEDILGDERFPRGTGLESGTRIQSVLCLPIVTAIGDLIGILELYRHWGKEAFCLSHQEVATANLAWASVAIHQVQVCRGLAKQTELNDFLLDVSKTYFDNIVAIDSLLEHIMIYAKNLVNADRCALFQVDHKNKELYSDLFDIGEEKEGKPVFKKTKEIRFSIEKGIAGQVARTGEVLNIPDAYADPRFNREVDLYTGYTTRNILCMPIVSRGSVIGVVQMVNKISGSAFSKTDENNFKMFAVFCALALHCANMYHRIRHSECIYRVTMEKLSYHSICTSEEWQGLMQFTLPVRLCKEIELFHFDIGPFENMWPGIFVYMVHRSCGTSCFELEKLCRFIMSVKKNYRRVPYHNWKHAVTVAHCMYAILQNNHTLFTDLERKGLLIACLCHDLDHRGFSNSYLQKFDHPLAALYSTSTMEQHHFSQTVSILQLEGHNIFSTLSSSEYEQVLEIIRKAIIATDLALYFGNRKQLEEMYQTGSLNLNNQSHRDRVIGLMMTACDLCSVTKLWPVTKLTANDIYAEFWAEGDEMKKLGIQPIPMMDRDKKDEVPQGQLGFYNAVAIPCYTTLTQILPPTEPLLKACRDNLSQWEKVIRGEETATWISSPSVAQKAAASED
T2 sequence (O00408 whole entry): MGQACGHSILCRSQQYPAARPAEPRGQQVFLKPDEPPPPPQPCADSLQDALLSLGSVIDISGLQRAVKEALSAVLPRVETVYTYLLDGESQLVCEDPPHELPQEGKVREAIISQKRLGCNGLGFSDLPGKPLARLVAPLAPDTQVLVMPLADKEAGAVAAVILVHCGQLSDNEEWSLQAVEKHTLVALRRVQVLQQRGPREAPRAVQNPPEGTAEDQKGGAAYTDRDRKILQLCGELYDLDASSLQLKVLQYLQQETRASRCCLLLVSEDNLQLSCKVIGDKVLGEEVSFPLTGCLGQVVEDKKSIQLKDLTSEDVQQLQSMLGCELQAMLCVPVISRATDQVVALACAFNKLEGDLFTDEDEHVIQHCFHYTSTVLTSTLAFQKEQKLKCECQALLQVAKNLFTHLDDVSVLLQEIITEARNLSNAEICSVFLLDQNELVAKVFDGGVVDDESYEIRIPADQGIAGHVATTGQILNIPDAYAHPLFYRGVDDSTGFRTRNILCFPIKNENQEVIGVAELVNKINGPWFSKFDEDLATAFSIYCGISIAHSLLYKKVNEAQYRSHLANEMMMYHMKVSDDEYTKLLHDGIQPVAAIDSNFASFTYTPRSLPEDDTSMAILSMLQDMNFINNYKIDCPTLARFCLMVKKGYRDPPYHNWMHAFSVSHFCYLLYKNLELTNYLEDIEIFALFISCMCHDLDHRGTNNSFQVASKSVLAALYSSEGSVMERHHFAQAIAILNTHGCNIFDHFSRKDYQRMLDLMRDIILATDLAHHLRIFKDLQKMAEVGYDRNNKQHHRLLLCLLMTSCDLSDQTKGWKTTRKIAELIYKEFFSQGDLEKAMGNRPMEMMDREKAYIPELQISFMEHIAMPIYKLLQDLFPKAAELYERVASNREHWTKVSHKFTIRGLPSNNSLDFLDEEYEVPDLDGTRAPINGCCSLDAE

SMILES	receptor occupancy at 10 mg/kg ([1]; po, route PO (oral))	ED50 ([1]; route PO (oral), drug dose producing 50% receptor occupancy, read-out: PDE Occupancy ED50)	IC50 [2, 5]	Emax ([2]; human recombinant PDE2A)	Emax [2]	IC50 [2, 6]	IC50 [3]	Emax [3]	Emax [4]	IC50 [4]	receptor occupancy at 10 mg/kg ([1]; sc, route SC (subcutaneous))	IC50 ([2]; hPDE2A pIC50)	IC50 [2, 7]
Cc1cc(C(=O)N2CC[C@@H](C)[C@H](c3cc(C(F)F)nc4ncnn34)C2)c(F)cn1 [Compound 84]	45%	14.1 mg/kg	3.16 nM	101%	101%	3.16 nM	7410 nM	30%	89%	708 nM			
Cc1ccc(C(=O)N2CC[C@@H](C)[C@H](c3cc(C(F)F)nc4ncnn34)C2)nc1C [Compound 85]			6.46 nM	100%	100%	6.46 nM	7760 nM	37%	88%	1200 nM	1%		
C[C@@H]1CCN(C(=O)c2ccn3cccc3c2)C[C@H]1c1cc(C(F)F)nc2ncnn12 [Compound 90]			0.355 nM	101%	101%	0.355 nM	214 nM	98%	102%	19.5 nM	73%		
C[C@@H]1CCN(C(=O)c2cc(OC(F)F)cc(C3CC3)c2)C[C@H]1c1cc(C(F)F)nc2ncnn12 [Compound 91]	-7%		0.372 nM	100%	100%	0.372 nM	708 nM	61%	94%	22.4 nM			
C[C@@H]1CCN(C(=O)c2ccc3c(c2)OCCC3)C[C@H]1c1cc(C(F)F)nc2ncnn12 [Compound 96]	1%		0.55 nM	100%	100%	0.55 nM	398 nM	73%	95%	33.1 nM			
Cc1cc([C@@H]2CN(C(=O)c3ccc4nccn4c3)CC[C@H]2C)n2ncnc2n1 [Compound 99]	1%		0.603 nM	100%	100%	0.603 nM	2090 nM	87%	100%	9.55 nM			
Cc1cc([C@@H]2CN(C(=O)c3cc(C)c(Cl)c(C)c3)CC[C@H]2C)n2ncnc2n1 [Compound 109]	43%				101%		457 nM	98%	99%	6.61 nM		0.933 nM	0.933 nM
Cc1cc(C(=O)N2CC[C@@H](C)[C@H](c3cc(C(F)F)nc4ncnn34)C2)cc(C)c1F [Compound 115]	23%				100%		1950 nM	87%	99%	77.6 nM		1.05 nM	1.05 nM
Cc1cc([C@@H]2CN(C(=O)c3cc(C)c(F)c(C)c3)CC[C@H]2C)n2ncnc2n1 [Compound 117]	8%				100%		851 nM	97%	99%	9.77 nM		1.15 nM	

Now from value to molecule, other results behind:

receptor occupancy at 10 mg/kg ([1]; po, route PO (oral))	ED50 ([1]; route PO (oral), drug dose producing 50% receptor occupancy, read-out: PDE Occupancy ED50)	IC50 [2, 5]	Emax ([2]; human recombinant PDE2A)	Emax [2]	IC50 [2, 6]	IC50 [3]	Emax [3]	Emax [4]	IC50 [4]	receptor occupancy at 10 mg/kg ([1]; sc, route SC (subcutaneous))	SMILES	IC50 ([2]; hPDE2A pIC50)	IC50 [2, 7]
		0.661 nM	101%	101%	0.661 nM	4790 nM	70%	98%	57.5 nM	43%	Cc1cc(C(=O)N2CC[C@@H](C)[C@H](c3cc(C(F)F)nc4ncnn34)C2)cc(C(C)C)n1 [Compound 101]		
		0.708 nM	99%	99%	0.708 nM	87.1 nM	100%	100%	18.2 nM	42%	C[C@@H]1CCN(C(=O)c2ccc(C3CC3)c(F)c2)C[C@H]1c1cc(C(F)F)nc2ncnn12 [Compound 103]		
29%		0.912 nM	100%	100%	0.912 nM	4170 nM	61%	99%	81.3 nM		Cc1cc(C(=O)N2CC[C@@H](C)[C@H](c3cc(C(F)F)nc4ncnn34)C2)cc(OC(C)C)n1 [Compound 107]		
-15%		1.78 nM	99%	99%	1.78 nM	513 nM	95%	96%	58.9 nM		C[C@@H]1CCN(C(=O)c2ccc(Cl)c(OC(F)F)c2)C[C@H]1c1cc(C(F)F)nc2ncnn12 [Compound 121]		
-16%		2.09 nM	100%	100%	2.09 nM	589 nM	96%	96%	589 nM		COc1cc(C(=O)N2CC[C@@H](C)[C@H](c3cc(C(F)F)nc4ncnn34)C2)nc2ccccc12 [Compound 125]		
21%		3.16 nM	101%	101%	3.16 nM	2240 nM	84%	100%	158 nM		COc1ncc(C(=O)N2CC[C@@H](C)[C@H](c3cc(C(F)F)nc4ncnn34)C2)cc1Cl [Compound 134]		
-11%		28.8 nM	99%	99%	28.8 nM	> 10000 nM	20%	78%	2400 nM		C[C@@H]1CCN(C(=O)c2ccn(C)n2)C[C@H]1c1cc(C(F)F)nc2ncnn12 [Compound 139]		
3%		3.72 nM	98%	98%	3.72 nM	1780 nM	82%	98%	178 nM		C[C@@H]1CCN(C(=O)c2ccc(Cl)c(C(F)(F)F)c2)C[C@H]1c1cc(C(F)F)nc2ncnn12 [Compound 169]		
1%		4.57 nM	100%	100%	4.57 nM	2140 nM	84%	84%	1290 nM		C[C@@H]1CCN(C(=O)c2cc3c(nc2Cl)CCCC3)C[C@H]1c1cc(C(F)F)nc2ncnn12 [Compound 170]		
-2%		28.2 nM	100%	100%	28.2 nM	> 10000 nM	17%	75%	2750 nM		Cc1nocc1C(=O)N1CC[C@@H](C)[C@H](c2cc(C(F)F)nc3ncnn23)C1 [Compound 184]		
		10.7 nM	100%	100%	10.7 nM	6030 nM	69%	95%	339 nM	8%	C[C@@H]1CCN(C(=O)c2ccc(F)c(O)c2)C[C@H]1c1cc(C(F)F)nc2ncnn12 [Compound 186]		
		17.8 nM	99%	99%	17.8 nM	3470 nM	74%	95%	427 nM	0%	C[C@@H]1CCN(C(=O)c2noc3ccccc23)C[C@H]1c1cc(C(F)F)nc2ncnn12 [Compound 187]		
